{"source": "patent US5177015A", "about": "“Onco-developmentally regulated α-N-acetylgalactosaminyltransferase” (Fred Hutchinson Cancer Research Centre, priority 1992, dated 1993)", "key": {"[1]": {"system": "onco-developmentally regulated α-N-acetylgalactosaminyltransferase", "experiment": "Solubilization of the enzyme with detergents", "format": "biochemical, human", "source_text": "The particulate membrane fraction can be prepared according to the method of Holmes, E. H. et al. ((1985) J. Biol. Chem. 260, 7619-7627)."}, "[2]": {"system": "onco-developmentally regulated α-N-acetylgalactosaminyltransferase (HUH-7 homogenate)", "conditions": "1 mM EDTA, 25 mM Tris buffer, pH 7.6", "quoted_text": "In the present case, the requirement for metal ion for the onco-developmentally regulated α-N-acetylgalactosaminyltransferase was determined in 25 mM Tris buffer, pH 7.6, supplemented with 20 mM MnCl2, 10 mM MgCl2, 1 mM CaCl2 and combinations of two of these or 1 mM EDTA.\nHepatoma cell (HUH-7) homogenates and the synthetic and natural peptides set forth in the Table in Example 1 were prepared as in Example 1 and incubated as described in Example 1 using 25 mM Tris buffer, pH 7.6; supplemented with 20 mM MnCl2, 10 mM MgCl2, 1 mM CaCl2 and combinations of two of these or 1 mM EDTA."}, "[3]": {"system": "onco-developmentally regulated α-N-acetylgalactosaminyltransferase (HUH-7 homogenate)", "experiment": "Variation of incubation time (kinetics of α-GalNAc transfer to synthetic peptide)", "format": "biochemical, human", "conditions": "200 nmol TPI, Tris pH 7.6, 37°, incubated 10 min. to 24 hours", "method": "C. Variation of incubation time. The standard reaction mixture described in Example 1 using TPI was incubated for 10 min to 24 hr. open circles, with TPI; closed circles, without TPI (control).\nIn order to determine the kinetics of α-GalNAc transfer to synthetic peptide, a reaction mixture containing 12.5 μmol Tris, pH 7.6, 200 nmol TPI, 0.3 nmol UDP[^3 H]-GalNAc, 25 nmol UDP-GalNAc, 5 μmol MgCl2, 0.5 μmol CaCl2 and homogenized hepatoma cells (HUH-7) was incubated for 10 min. to 24 hours at 37°. A parallel control was run without TPI. At the end of the incubation periods, the samples were treated as described in Example 1."}, "[4]": {"system": "α-N-acetylgalactosaminyltransferase in crude homogenates of human hepatoma cells (HUH-7)", "experiment": "Specific activity of α-N-acetylgalactosaminyltransferase toward various acceptors", "format": "biochemical", "conditions": "200 nmol acceptor, HUH-7 homogenate, 25 mM Tris, 10 mM MgCl2, 1 mM CaCl2, pH 7.6, 2 hrs at 37° C., FDC-6 immunoaffinity", "method": "8×10^7 hepatoma cells (HUH-7) cultured in serum-free medium (Dulbecco-Modified Eagles Medium) were homogenized in a Potter-Elvehjem homogenizer with 200 μl of distilled water. 300 μl of tris buffer solution, consisting of 25 mM tris, 10 mM MgCl2 and 1 mM CaCl2, pH 7.6, was added. 0.3 nmol UDP[^3 H]-GalNAc (specific activity 8.7 Ci/mmol, New England Nuclear Research Product) and 25 nmol UDP-GalNAc were added and incubated for 2 hrs at 37° C. The incubation mixture was centrifuged at 10,000 rpm for 30 min. Supernatant was applied onto a 0.5 ml Sepharose 4B precolumn, followed by a 0.5 ml FDC-6 immunoaffinity column containing 10 mg of purified FDC-6 antibody/ml as described by Matsuura, H. et al. ((1988) J. Biol. Chem. 263, 3314-3322). Immunoprecipitation using 200 μl of FDC-6 binding Sepharose 4B was also performed as described by Bigler R. D. et al ((1988) J. Immunol. 144 21). Supernatants were incubated for 1 hr at 20° C. The column or immunoprecipitate was washed with 1M NaCl in 50 mM Tris buffer, pH 7.4, and eluted with 2.5M potassium thiocyanate in the same buffer solution. The eluate and washings were pooled and aliquots were counted. The same incubation mixture without addition of synthetic peptides or FN was used as a control."}, "[5]": {"system": "onco-developmentally regulated α-N-acetylgalactosaminyltransferase (hepatoma cell homogenate)", "experiment": "Effect of UDP-GalNAc concentration (Hanes-Woolf plot of saturation data)", "format": "biochemical, human", "conditions": "UDP-GalNAc 0.6 μM to 200 μM, 200 nmol TPI, read-out: apparent Km for UDP-GalNAc", "method": "B. Effect of UDP-GalNAc concentration. A Hanes-Woolf plot of saturation data was obtained by varying UDP-GalNAc concentration from 0.6 μM to 200 μM. The reaction was conducted as described in Example 2 in the presence of 100 mg protein and 200 nmol TPI. The specific activity of UDP[^3 H]-GalNAc utilized was 4×10^6 cpm/nmol.\nThe apparent Km for UDP-GalNAc can be determined by generating a Hanes-Woolf plot of saturation data obtained by varying the UDP-GalNAc concentration at a constant cellular or tissue protein concentration and a constant substrate concentration. A preferred substrate for this assay is TPI.\nA Hanes-Woolf plot of saturation data was obtained by varying UDP-GalNAc concentration from 0.6 μM to 200 μM. The reaction as conducted as described in Example 1 in the presence of 100 mg protein of hepatoma cell homogenate and 200 nmol TPI. The specific activity of the UDP[^3 H]-GalNAc used was 4×10^6 cpm/nmol. The reacted samples were also treated as described in Example 1."}}, "note": "Ends that are not written are not given here."}
{"molecule": "Triton X-100", "values": [{"measurement": "Effect of solubilization with detergent on enzyme activity", "setting": "[1]", "value": "does not enhance enzyme activity"}]}
{"molecule": "O=C(O)CN(CCN(CC(=O)O)CC(=O)O)CC(=O)O", "note": "[EDTA]", "values": [{"measurement": "Enzyme activity in the presence of EDTA", "setting": "[2]", "value": "totally abolished"}]}
{"molecule": "thr-pro-phe-val-thr-his-pro-gly-tyr-asp-thr-gly-asn-gly-ile (TPFVTHPGYDTGNGI) [TPI]", "values": [{"measurement": "Time over which α-GalNAc transfer to synthetic peptide is linear", "setting": "[3]", "value": "about 2 hours"}, {"measurement": "Activity (specific activity of the enzyme to the acceptor)", "setting": "[4]", "value": 0.11, "unit": "pmol/hr/mg protein"}]}
{"molecule": "C[C@H](CCC(=O)NCCC[N+](C)(C)CC(O)CS(=O)(=O)[O-])[C@H]1CC[C@H]2[C@@H]3[C@H](O)C[C@@H]4C[C@H](O)CC[C@]4(C)[C@H]3C[C@H](O)[C@]12C", "note": "(some centres unmarked) [CHAPSO, 3-(3-cholamidopropyldimethylammonio)-1-(20-hydroxy-1-propanesulfonate)]", "values": [{"measurement": "Effect of solubilization with detergent on enzyme activity", "setting": "[1]", "value": "does not enhance enzyme activity"}]}
{"molecule": "VTHPGY [VTY, val-thr-his-pro-gly-tyr]", "values": [{"measurement": "Activity (specific activity of the enzyme to the acceptor)", "setting": "[4]", "value": 0.03, "unit": "pmol/hr/mg protein"}]}
{"molecule": "thr-pro-phe-val-thr-his-pro-gly-tyr-asp-thr-gly-asn-gly-ile-gln-leu-pro-gly-thr-ser-gly-gln-gln-pro-ser-val-gly-gln-gln (TPFVTHPGYDTGNGIQLPGTSGQQPSVGQQ) [TPQ]", "values": [{"measurement": "Activity (specific activity of the enzyme to the acceptor)", "setting": "[4]", "value": 0.06, "unit": "pmol/hr/mg protein"}]}
{"molecule": "CC(=O)NC1C(OP(=O)(O)OP(=O)(O)OCC2OC(n3ccc(=O)[nH]c3=O)C(O)C2O)OC(CO)C(O)C1O", "note": "(centres unmarked) [UDP-GalNAc]", "values": [{"measurement": "Km", "setting": "[5]", "value": "~48", "unit": "µM"}]}
